One assay deals with T1, PTGER2 (EP2) (Homo sapiens, UniProt P43116).
T1 construct: host or cells: HEK 293 (PathHunter PTGER2 b-arrestin cell line)
Description: hEP2 b-arrestin assay (PathHunter HEK 293 PTGER2 b-arrestin cells). The class given is cell-based. As to conditions: antagonistic activity, beta-arrestin assay; read-out: hEP2 b-arr IC50. The procedure, abridged: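 PathHunter HEK293 cells with ProLink-tagged EP2 and EA-β-arrestin 2 preincubated 15 min at 37 °C with compound (10 μM-2 nM or 1 μM-0.2 nM), then stimulated 120 min with 5 μM PGE2 (EC80). β-gal complementation read by chemiluminescence; IC50 from duplicate dose-response versus DMSO.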

For another assay, the target named is T2, EP4 receptor (Homo sapiens, UniProt P35408).
T2 construct: BT549 breast cancer cells, express high endogenous EP4 levels and very low EP2 levels; host or cells: BT549 breast cancer cells
T2 sequence (P35408 whole entry): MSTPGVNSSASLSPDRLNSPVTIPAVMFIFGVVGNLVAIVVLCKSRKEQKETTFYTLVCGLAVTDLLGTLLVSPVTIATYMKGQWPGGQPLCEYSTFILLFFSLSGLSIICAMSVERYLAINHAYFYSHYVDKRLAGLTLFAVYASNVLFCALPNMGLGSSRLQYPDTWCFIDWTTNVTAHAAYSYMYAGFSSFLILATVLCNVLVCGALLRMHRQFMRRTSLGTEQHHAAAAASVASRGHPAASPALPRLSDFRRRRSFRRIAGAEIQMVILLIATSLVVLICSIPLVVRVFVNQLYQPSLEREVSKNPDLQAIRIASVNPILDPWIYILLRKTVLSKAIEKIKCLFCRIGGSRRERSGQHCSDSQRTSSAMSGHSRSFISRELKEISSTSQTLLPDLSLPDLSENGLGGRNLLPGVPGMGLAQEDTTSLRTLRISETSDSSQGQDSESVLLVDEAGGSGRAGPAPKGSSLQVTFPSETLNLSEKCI
Description: hEP4 cAMP assay (BT549 breast cancer cells, HTRF cAMP, PGE2 stimulation). The assay is classed as cell-based. As to conditions: antagonistic activity, PGE2 6 nM (EC80). The gist of the method:
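BT549 cells, with endogenous EP4 and very low EP2, were preincubated 45 min at room temperature with compound in HBSS/HEPES/BSA buffer with 2 mM IBMX. They were then stimulated 30 min with 6 nM PGE2 (EC80). cAMP was measured by HTRF competitive immunoassay against a calibrator; IC50 from duplicate dose-response as % of DMSO control.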
(Cyclic AMP is a second messenger, typically raised through Gs and lowered through Gi signalling.)

Broadly, the pIC50 is −log10 of the IC50, conventionally taken in molar units.

pIC50: −log10 of the molar value.

T1 sequence (P43116 whole entry): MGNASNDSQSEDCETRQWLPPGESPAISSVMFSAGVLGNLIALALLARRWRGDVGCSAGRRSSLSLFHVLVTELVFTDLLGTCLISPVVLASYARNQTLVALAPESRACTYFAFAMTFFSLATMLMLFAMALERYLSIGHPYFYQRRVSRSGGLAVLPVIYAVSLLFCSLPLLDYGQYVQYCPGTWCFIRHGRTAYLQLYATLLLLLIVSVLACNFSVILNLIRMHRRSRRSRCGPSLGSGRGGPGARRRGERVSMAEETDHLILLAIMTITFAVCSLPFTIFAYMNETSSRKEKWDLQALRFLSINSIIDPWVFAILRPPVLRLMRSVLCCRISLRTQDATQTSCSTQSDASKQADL

As to `CCOc1cc(-c2cc(NCCc3c(C)sc4c(C)cccc34)ncn2)ccc1C(C)C(=O)O` (racemic) [Example 126, rac-2-(4-{6-[2-(2,7-Dimethyl-benzo[b]thiophen-3-yl)-ethylamino]-pyrimidin-4-yl}-2-ethoxy-phenyl)-propionic acid], the negative-log IC50 (pIC50) on PTGER2 (EP2) was 6.98; against EP4 receptor, 6.37.
Taken in the same sequence, the figures for `COc1ccc(Cl)c2c(CCNc3cc(-c4cc(C)c(C(=O)O)s4)ncn3)c(C)sc12` [Example 5, 5-{6-[2-(4-Chloro-7-methoxy-2-methyl-benzo[b]thiophen-3-yl)-ethylamino]-pyrimidin-4-yl}-3-methyl-thiophene-2-carboxylic acid] were 6.97 and 6.32.
As to `Cc1cc(-c2cc(NCCc3c(C)oc4ccccc34)ncn2)sc1C(=O)O` [Example 6, 3-Methyl-5-{6-[2-(2-methyl-benzofuran-3-yl)-ethylamino]-pyrimidin-4-yl}-thiophene-2-carboxylic acid], the pIC50 was 8.30 at PTGER2 (EP2) and 6.26 at EP4 receptor.
For the compound `CCc1oc2c(C)cc(F)cc2c1CCNc1cc(-c2cc(C)c(C(=O)O)s2)ncn1` [Example 7, 5-{6-[2-(2-Ethyl-5-fluoro-7-methyl-benzofuran-3-yl)-ethylamino]-pyrimidin-4-yl}-3-methyl-thiophene-2-carboxylic acid], the pIC50 is 6.55 on PTGER2 (EP2) and 6.20 at EP4 receptor.
Taken in the same sequence, the figures for `Cc1sc2c(C)cccc2c1CCNc1cc(-c2ccc(C(=O)O)cc2)ncn1` [Example 8, 4-{6-[2-(2,7-Dimethyl-benzo[b]thiophen-3-yl)-ethylamino]-pyrimidin-4-yl}-benzoic acid] were 7.80 and 6.43.
For the compound `COc1ccc(Cl)c2c(CCNc3cc(-c4ccc(C(=O)O)c(O)c4)ncn3)c(C)sc12` [Example 9, 4-{6-[2-(4-Chloro-7-methoxy-2-methyl-benzo[b]thiophen-3-yl)-ethylamino]-pyrimidin-4-yl}-2-hydroxy-benzoic acid], the pIC50 at PTGER2 (EP2) is 6.93; at EP4 receptor, 6.26.
The corresponding values for `Cc1sc2c(C)cc(F)cc2c1CCNc1cc(-c2ccc(C(=O)O)c(O)c2)ncn1` [Example 10, 4-{6-[2-(5-Fluoro-2,7-dimethyl-benzo[b]thiophen-3-yl)-ethylamino]-pyrimidin-4-yl}-2-hydroxy-benzoic acid] are 7.24 and 6.07.
Taken in the same sequence, the figures for `CSc1cc(-c2cc(NCCc3c(C#N)sc4c(C)cc(F)cc34)ncn2)ccc1C(=O)O` [Example 12, 4-{6-[2-(2-Cyano-5-fluoro-7-methyl-benzo[b]thiophen-3-yl)-ethylamino]-pyrimidin-4-yl}-2-methylsulfanyl-benzoic acid] were 8.40 and 7.70.
Consider `COc1cccc2c(CCNc3cc(-c4ccc(C(=O)O)c(SC)c4)ncn3)c(C#N)sc12` [Example 13, 4-{6-[2-(2-Cyano-7-methoxy-benzo[b]thiophen-3-yl)-ethylamino]-pyrimidin-4-yl}-2-methylsulfanyl-benzoic acid], for which the pIC50 at PTGER2 (EP2) is 7.29; against EP4 receptor, 7.57.
As to `CCOc1cc(-c2cc(NCCc3c(C)sc4c(C)cc(F)cc34)ncn2)sc1/C=C/C(=O)O` [Example 96, (E)-3-(3-Ethoxy-5-{6-[2-(5-fluoro-2,7-dimethyl-benzo[b]thiophen-3-yl)-ethylamino]-pyrimidin-4-yl}-thiophen-2-yl)-acrylic acid], the values for the pIC50 at PTGER2 (EP2) and against EP4 receptor were 7.70 and 7.38, respectively.
Taken in the same sequence, the figures for `CCOc1cc(-c2cc(NCCc3c(C)sc4c(C)cc(F)cc34)ncn2)sc1CCC(=O)O` [Example 97, 3-(3-Ethoxy-5-{6-[2-(5-fluoro-2,7-dimethyl-benzo[b]thiophen-3-yl)-ethylamino]-pyrimidin-4-yl}-thiophen-2-yl)-propionic acid] were 7.31 and 6.98.
Taken in the same sequence, the figures for `COc1ccc(Cl)c2c(CCNc3cc(-c4ccc(C(=O)O)c(OC(C)C)c4)ncn3)c(C)sc12` [Example 98, 4-{6-[2-(4-Chloro-7-methoxy-2-methyl-benzo[b]thiophen-3-yl)-ethylamino]-pyrimidin-4-yl}-2-isopropoxy-benzoic acid] were 7.26 and 6.67.
The corresponding values for `CCCOc1cc(-c2cc(NCCc3c(C)sc4c(C)c(F)ccc34)ncn2)ccc1C(=O)O` [Example 99, 4-{6-[2-(6-Fluoro-2,7-dimethyl-benzo[b]thiophen-3-yl)-ethylamino]-pyrimidin-4-yl}-2-propoxy-benzoic acid] are 8.30 and 6.35.
Take `CCCOc1cc(-c2cc(NCCc3c(C)sc4c(C)cc(F)cc34)ncn2)ccc1C(=O)O` [Example 100, 4-{6-[2-(5-Fluoro-2,7-dimethyl-benzo[b]thiophen-3-yl)-ethylamino]-pyrimidin-4-yl}-2-propoxy-benzoic acid]: the pIC50 on PTGER2 (EP2) was 7.92; against EP4 receptor it was 6.34.
With `CCCOc1cc(-c2cc(NCCc3c(C)sc4c(OC)ccc(Cl)c34)ncn2)ccc1C(=O)O` [Example 101, 4-{6-[2-(4-Chloro-7-methoxy-2-methyl-benzo[b]thiophen-3-yl)-ethylamino]-pyrimidin-4-yl}-2-propoxy-benzoic acid], the pIC50 is 7.66 on PTGER2 (EP2) and 6.32 against EP4 receptor.
Regarding `CCCOc1cc(-c2cc(NCCc3c(C)sc4c(Cl)ccc(Cl)c34)ncn2)ccc1C(=O)O` [Example 102, 4-{6-[2-(4,7-Dichloro-2-methyl-benzo[b]thiophen-3-yl)-ethylamino]-pyrimidin-4-yl}-2-propoxy-benzoic acid], the pIC50 is 7.59 on PTGER2 (EP2) and 6.06 at EP4 receptor.
With `CCOc1cc(-c2cc(NCCc3c(C)sc4c(C)ccc(F)c34)ncn2)cc(C)c1C(=O)O` [Example 103, 2-Ethoxy-4-{6-[2-(4-fluoro-2,7-dimethyl-benzo[b]thiophen-3-yl)-ethylamino]-pyrimidin-4-yl}-6-methyl-benzoic acid], the pIC50 at PTGER2 (EP2) is 7.10; against EP4 receptor, 6.48.
Taken in the same sequence, the figures for `CCOc1cc(-c2cc(NCCc3c(C#N)sc4c(C)cc(F)cc34)ncn2)ccc1CC(=O)O` [Example 104, (4-{6-[2-(2-Cyano-5-fluoro-7-methyl-benzo[b]thiophen-3-yl)-ethylamino]-pyrimidin-4-yl}-2-ethoxy-phenyl)-acetic acid] were 7.44 and 7.52.
Taken in the same sequence, the figures for `CCOc1cc(-c2cc(NCCc3c(C)sc4c(OC)ccc(F)c34)ncn2)ccc1CC(=O)O` [Example 105, (2-Ethoxy-4-{6-[2-(4-fluoro-7-methoxy-2-methyl-benzo[b]thiophen-3-yl)-ethylamino]-pyrimidin-4-yl}-phenyl)-acetic acid] were 7.48 and 6.90.
As to `CCOc1cc(-c2cc(NCCc3c(C)sc4c(C)ccc(F)c34)ncn2)ccc1CC(=O)O` [Example 107, (2-Ethoxy-4-{6-[2-(4-fluoro-2,7-dimethyl-benzo[b]thiophen-3-yl)-ethylamino]-pyrimidin-4-yl}-phenyl)-acetic acid], the pIC50 at PTGER2 (EP2) is 7.42; on EP4 receptor, 6.59.
As to `CCOc1cc(-c2cc(NCCc3c(C)sc4c(C)cccc34)ncn2)ccc1CC(=O)O` [Example 109, (4-{6-[2-(2,7-Dimethyl-benzo[b]thiophen-3-yl)-ethylamino]-pyrimidin-4-yl}-2-ethoxy-phenyl)-acetic acid], the pIC50 at PTGER2 (EP2) is 7.62; against EP4 receptor, 6.54.
On to `CCOc1cc(-c2cc(NCCc3c(C)sc4c(C)cc(F)cc34)ncn2)ccc1CC(=O)O` [Example 110, (2-Ethoxy-4-{6-[2-(5-fluoro-2,7-dimethyl-benzo[b]thiophen-3-yl)-ethylamino]-pyrimidin-4-yl}-phenyl)-acetic acid], for which the values for the pIC50 on PTGER2 (EP2) and against EP4 receptor were 7.60 and 6.53, respectively.
The corresponding values for `CCOc1cc(-c2cc(NCCc3c(C)sc4c(C)c(F)ccc34)ncn2)ccc1CC(=O)O` [Example 112, (2-Ethoxy-4-{6-[2-(6-fluoro-2,7-dimethyl-benzo[b]thiophen-3-yl)-ethylamino]-pyrimidin-4-yl}-phenyl)-acetic acid] are 7.38 and 6.35.
Consider `Cc1sc2c(C)cc(F)cc2c1CCNc1cc(-c2ccc(C(=O)O)c(OC(F)F)c2)ncn1` [Example 115, 2-Difluoromethoxy-4-{6-[2-(5-fluoro-2,7-dimethyl-benzo[b]thiophen-3-yl)-ethylamino]-pyrimidin-4-yl}-benzoic acid], for which the figures for the pIC50 on PTGER2 (EP2) and against EP4 receptor were 7.80 and 7.22, respectively.
Taken in the same sequence, the figures for `COc1ccc(Cl)c2c(CCNc3cc(-c4ccc(C(=O)O)c(OC(F)F)c4)ncn3)c(C)sc12` [Example 116, 4-{6-[2-(4-Chloro-7-methoxy-2-methyl-benzo[b]thiophen-3-yl)-ethylamino]-pyrimidin-4-yl}-2-difluoromethoxy-benzoic acid] were 7.52 and 6.65.
Turning to `CCOc1cc(-c2cc(NCCc3c(C)sc4c(OC)ccc(F)c34)ncn2)ccc1OCC(=O)O` [Example 117, (2-Ethoxy-4-{6-[2-(4-fluoro-7-methoxy-2-methyl-benzo[b]thiophen-3-yl)-ethylamino]-pyrimidin-4-yl}-phenoxy)-acetic acid], the results for the pIC50 on PTGER2 (EP2) and on EP4 receptor were 7.70 and 7.27, respectively.
The corresponding values for `CCOc1cc(-c2cc(NCCc3c(C)sc4c(C)ccc(F)c34)ncn2)ccc1OCC(=O)O` [Example 118, (2-Ethoxy-4-{6-[2-(4-fluoro-2,7-dimethyl-benzo[b]thiophen-3-yl)-ethylamino]-pyrimidin-4-yl}-phenoxy)-acetic acid] are 7.80 and 7.06.

For the origin of these results see patent publication US11325899B2, “Benzofurane and benzothiophene derivatives as PGE2 receptor modulators” (IDORSIA PHARMACEUTICALS LTD, priority 2017, dated 2022).
